Marks after values point to notes of the source that are not given here.
What was measured:
[1] = test system: reactive oxygen species (ROS); experiment: ROS generation in culture medium by UV photo-oxidation, H2DFFDA fluorescent dye (Example 4); conditions: all concentrations; compared to vehicle group; UV photo-oxidation in GMOPS-Plus
Description: In order to determine whether the lipoic acid is having an antioxidant effect, a series of experiments were performed using the fluorescent dye […] (H2DFFDA), which reacts with reactive oxygen species (ROS) intermediates. 200 μM H2DFFDA in DMSO was added to GMOPS-Plus (available from Vitrolife). Lipoic acid dissolved in EtOH with the final concentration within the media being 0.1% EtOH. Each drop was then photo-oxidized with 4 successive 2.5 minute exposures using UV light to generate ROS.
All results are based on comparison to the vehicle group ([…]), which was not significant in comparison to the control group.

[2] = test system: rabbit morulae; conditions: omission from Ham's F10 medium; cited from earlier work
[3] = test system: 8-cell hamster embryos; conditions: omission from Ham's F10 medium; cited from earlier work
[4] = test system: CF1 mouse zygote; experiment: Effective concentration range of lipoic acid on mouse zygote development at 20% oxygen (Example 3); format: cell-based; conditions: for Day 3 (% compacting) / Day 4 (% Total Blast) / Day 5 (% Hatching) / Day 5 (% Total Blast) / Total Cell Number: 20% oxygen
Description: The effective range of lipoic acid concentrations to enhance blastocyst development and cell number was established using CF1 mouse embryos.

[5] = test system: CF1 mouse embryos; experiment: Blastocyst development and cell number of mouse embryos cultured with lipoic acid at 20% or 5% O2 (Example 1); format: cell-based
Description: The following procedure was carried out. Lipoic acid was dissolved in ethanol. A 100 mM working solution in 100% EtOH was prepared with appropriate dilutions made to the culture media thereafter (1 μM, 10 μM and 100 μM final concentrations). A vehicle control, equivalent to the dilution of the highest concentration solution (0.1%), was used in all culture experiments. Zygotes were collected from 4-week-old CF1 outbred female mice. Cumulus-enclosed zygotes were collected at 21 h post hCG and denuded with 1 mg/mL hyaluronidase in G-MOPS supplemented with 5 mg/mL human serum albumin. Cultures were incubated at either 5% or 20% O2. After four days of culture, blastocyst development was analyzed and cell number was counted in 200 cultured embryos per treatment.
The results are shown in FIGS. 1 (20% O2) and 2 (5% O2). The data are based on 200 embryos cultured per study. […] Furthermore, the beneficial effect of lipoic acid was lost at higher concentrations. […] The data for FIGS. 1 and 2 are presented in Tables 6 and 7, respectively, which also provide the results for the trophectoderm, inner cell mass (ICM) and ICM ratio.

[6] = test system: human embryos; experiment: Human embryo development in G1 medium with 10 μM lipoic acid (Example 5); format: cell-based; conditions: G1 medium with 10 μM lipoic acid versus G1 free of lipoic acid
Description: In accordance with the present invention, the effect of lipoic acid-containing culture media on human embryo development is examined. Good prognosis patients have half of their embryos cultured in G1 culture media free of lipoic acid (i.e., the control), while the other half are cultured in G1 medium containing 10 μM lipoic acid (i.e., the elevated lipoic acid medium).

[7] = test system: CF1 mouse embryos; experiment: Sequential G1/G2 culture of mouse embryos, G1 with or without 10 μM lipoic acid (Example 2); format: cell-based; conditions: low O2
Description: CF1 mouse embryos were grown in either G1 alone or G1 plus 10 μM lipoic acid. After 48 hours, embryos from both treatment groups were moved to G2. All cultures were incubated in low O2. Compaction rates were assessed and blastocyst developmental rates were measured at 71 and 78 hours. Blastocysts were then differentially stained and counted.

[8] = G1 + 10 μM LA for 48 hours, then G2

O=C(O)CCCC[C@@H]1CCSS1 (racemic) [lipoic acid]
generation of ROS within the culture media [1]: concentration-dependent decrease in the generation of reactive oxygen
effect of omission of lipoic acid on culture of rabbit morulae to expanded blastocysts [2]: no significant effect
effect of omission of lipoic acid on development of 8-cell hamster embryos [3]: no significant effect on the development at any stage of culture
Day 3 (% compacting) ([4]; 5 μM LA): 38.9%
Day 4 (% Total Blast) ([4]; 5 μM LA): 51.6%
Day 5 (% Hatching) ([4]; 5 μM LA): 40.9%
Day 5 (% Total Blast) ([4]; 5 μM LA): 81.8%
Total Cell Number ([4]; 5 μM LA): 90.2 ± 4.8
Day 3 (% compacting) ([4]; 10 μM LA): 51.4%
Day 4 (% Total Blast) ([4]; 10 μM LA): 62.9%
Day 5 (% Hatching) ([4]; 10 μM LA): 40.0%
Day 5 (% Total Blast) ([4]; 10 μM LA): 92.7%
Total Cell Number ([4]; 10 μM LA): 91.3 ± 4.7
Day 3 (% compacting) ([4]; 20 μM LA): 26.5%
Day 4 (% Total Blast) ([4]; 20 μM LA): 42.9%
Day 5 (% Hatching) ([4]; 20 μM LA): 31.3%
Day 5 (% Total Blast) ([4]; 20 μM LA): 73.1%
Total Cell Number ([4]; 20 μM LA): 94.0 ± 7.2
Day 3 (% compacting) ([4]; 40 μM LA): 22.9%
Day 4 (% Total Blast) ([4]; 40 μM LA): 37.3%
Day 5 (% Hatching) ([4]; 40 μM LA): 28.4%
Day 5 (% Total Blast) ([4]; 40 μM LA): 74.6%
Total Cell Number ([4]; 40 μM LA): 69.4 ± 5.8
Day 3 (% compacting) ([4]; 80 μM LA): 22.9%
Day 4 (% Total Blast) ([4]; 80 μM LA): 4.6%
Day 5 (% Hatching) ([4]; 80 μM LA): 9.4%
Day 5 (% Total Blast) ([4]; 80 μM LA): 29.7%
Total Cell Number ([4]; 80 μM LA): 34.0
blastocyst development by day 5 and cell number relative to the control ([4]; above 5 to 40 μM): lower blastocyst development by day 5 and lower cell number relative to the control
effect on progression to blastocyst stage, blastocyst cell number and inner cell mass ([4]; lipoic acid at less than 5 μM): little, if any, effect
day 4 blastocyst development and cell numbers ([4]; lipoic acid greater than about 40 μM): lower day 4 blastocyst development and decreased cell numbers
concentration of maximum improvement to embryo development ([4]; within the range 5 μM to 40 μM): approximately 10 μM
blastocyst cell number ([5]; 1 μM lipoic acid, at either 5% or 20% oxygen): no statistically significant increase in cell number
blastocyst cell number ([5]; 10 μM lipoic acid, outbred (CF1) mouse embryos): significantly higher cell number
blastocyst cell number versus control medium ([5]; 100 μM lipoic acid): significantly lower cell numbers
Day 5 % Blast ([5]; lipoic acid 1 μM, 5% O2): 76.15%
ICM ([5]; lipoic acid 1 μM, 5% O2): 16.83
ICM ratio ([5]; lipoic acid 1 μM, 5% O2): 19.71%
total cell # ([5]; lipoic acid 1 μM, 5% O2): 85.40
trophectoderm ([5]; lipoic acid 1 μM, 5% O2): 68.57
Day 5 % Blast ([5]; lipoic acid 1 μM, 20% O2): 59.18%
ICM ([5]; lipoic acid 1 μM, 20% O2): 13.07
ICM ratio ([5]; lipoic acid 1 μM, 20% O2): 19.12%
total cell # ([5]; lipoic acid 1 μM, 20% O2): 68.37
trophectoderm ([5]; lipoic acid 1 μM, 20% O2): 55.30
Day 5 % Blast ([5]; lipoic acid 10 μM, 5% O2): 76.74%^#
ICM ([5]; lipoic acid 10 μM, 5% O2): 22.49^####
ICM ratio ([5]; lipoic acid 10 μM, 5% O2): 22.10%
total cell # ([5]; lipoic acid 10 μM, 5% O2): 101.77^###
trophectoderm ([5]; lipoic acid 10 μM, 5% O2): 79.28^##
Day 5 % Blast ([5]; lipoic acid 10 μM, 20% O2): 61.47%^‡
ICM ([5]; lipoic acid 10 μM, 20% O2): 16.4731^‡‡‡‡
ICM ratio ([5]; lipoic acid 10 μM, 20% O2): 21.25%
total cell # ([5]; lipoic acid 10 μM, 20% O2): 77.527^‡‡‡
trophectoderm ([5]; lipoic acid 10 μM, 20% O2): 61.054^‡‡
Day 5 % Blast ([5]; lipoic acid 100 μM, 5% O2): 53.13%
ICM ([5]; lipoic acid 100 μM, 5% O2): 13.61
ICM ratio ([5]; lipoic acid 100 μM, 5% O2): 18.33%
total cell # ([5]; lipoic acid 100 μM, 5% O2): 74.21
trophectoderm ([5]; lipoic acid 100 μM, 5% O2): 60.61
Day 5 % Blast ([5]; lipoic acid 100 μM, 20% O2): 42.57%
ICM ([5]; lipoic acid 100 μM, 20% O2): 10.2916
ICM ratio ([5]; lipoic acid 100 μM, 20% O2): 19.07%
total cell # ([5]; lipoic acid 100 μM, 20% O2): 53.9583
trophectoderm ([5]; lipoic acid 100 μM, 20% O2): 43.6667
human embryo development up to the 8-cell and blastocyst stage [6]: Embryos develop quicker up to the 8-cell and blastocyst stage
inner cell mass number and percentage inner cell mass of total ([7]; 10 μM lipoic acid added to G1): increased inner cell mass number and percentage inner cell mass of total
% Expanded on Day 4 [7, 8]: 39.7%
% ICM [7, 8]: 31%**
Day 3 % a.m. [7, 8]: 81.0%
Day 4 blast % a.m. [7, 8]: 22.4%
Day 4 blast % p.m. [7, 8]: 65.5%
ICM [7, 8]: 16 ± 1
TE [7, 8]: 34 ± 2
Total [7, 8]: 50 ± 2
